Patent publication US20220119367A1, “HETEROCYCLIC COMPOUNDS AS ADENOSINE ANTAGONISTS” (Nuvation Bio Inc., priority 2019, published 2022)

Assays:
[1] = molecular target: T1, adenosine A2a (human) membrane (Homo sapiens, UniProt P29274); test: A2A adenosine receptor radioligand binding assay ([3H] CGS-21680); conditions: radioligand [3H] CGS-21680 6 nM
T1 construct: purchased PerkinElmer RBHA2AM400UA
Method: A second A2A adenosine receptor radioligand binding assay protocol was used. The protocol used adenosine A2a (human) membrane (PerkinElmer RBHA2AM400UA) at a concentration of 5 μg/well/100 μl and the radioligand [3H] CGS-21680 (Cat No. PerkinElmer-NET1021250UC) at a final concentration of 6 nM. Testing compounds were diluted with DMSO to make 8-point 4-fold serial dilution, starting at 0.2 mM. CGS-15943 was the reference compound. 1 μl of compounds/high control/low control was transferred to the assay plate according to a plate map, followed by 100 μl of membrane stocks and 100 μl of radioligand, in assay buffer (50 mM Tris-HCl, 10 mM MgCl2, 1 mM EDTA, pH 7.4). The plate was sealed and incubated at RT for 2 hours. Unifilter-96 GF/C filter plates (Perkin Elmer Cat #6005174) were soaked with 50 μl of 0.3% PEI per well for at least 0.5 hour at room temperature. When the binding assays were completed, the reaction mixtures were filtered through GF/C plates using Perkin Elmer Filtermate Harvester, and each plate washed 4 times with cold wash buffer (50 mM Tris-HCl, 154 mM NaCl, pH 7.4). The filter plates were dried for 1 hour at 50 degrees. After drying, the bottom of the filter plate wells was sealed, 50 μl of Perkin Elmer Microscint 20 cocktail was added, and the top of the filter plate was sealed. ^3H trapped on the filter was counted using Perkin Elmer MicroBeta2 Reader. The data were analyzed with GraphPad Prism 5 to obtain binding IC50 values. The “Inhibition [% Control]” was calculated using the equation: % Inh=(1−Background subtracted Assay value/Background subtracted HC value)*100, where HC is high control.

[2] = molecular target: T2, adenosine A1 (human) membrane (Homo sapiens, UniProt P30542); test: A1 adenosine receptor radioligand binding assay ([3H] DPCPX); conditions: compound at 200 nM, radioligand [3H] DPCPX 1 nM
T2 construct: purchased PerkinElmer ES-010-M400UA
T2 sequence (P30542 1-326): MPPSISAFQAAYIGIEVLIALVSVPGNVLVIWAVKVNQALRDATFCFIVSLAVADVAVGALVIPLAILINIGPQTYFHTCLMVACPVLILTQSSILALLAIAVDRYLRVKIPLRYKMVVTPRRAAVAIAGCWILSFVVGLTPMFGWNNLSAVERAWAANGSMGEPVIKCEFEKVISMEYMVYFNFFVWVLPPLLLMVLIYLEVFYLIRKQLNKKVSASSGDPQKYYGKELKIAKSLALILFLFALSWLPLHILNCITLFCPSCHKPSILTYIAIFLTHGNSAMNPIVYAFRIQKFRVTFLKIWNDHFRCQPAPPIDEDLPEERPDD
Method: A second A1 adenosine receptor radioligand binding assay protocol was used. The protocol used adenosine A1 (human) membrane (PerkinElmer ES-010-M400UA) at a concentration of 2.5 μg/well/100 μl and the radioligand [3H] DPCPX (Cat No. PerkinElmer-NET974250UC) at a final concentration of 1 nM. Testing compounds were tested at a final concentration of 200 nM. CGS-15943, the reference compound, was tested in an 8-point 4-fold serial dilution, starting at a top concentration of 1 μM. 1 μl of compounds/high control/low control was transferred to the assay plate according to a plate map, followed by 100 μl of membrane stocks and 100 μl of radioligand, in assay buffer (25 mM HEPES, 5 mM MgCl2, 1 mM CaCl2, 100 mM NaCl, pH 7.4). The plate was sealed and incubated at RT for 1 hour. Unifilter-96 GF/C filter plates (Perkin Elmer Cat #6005174) were soaked with 50 μl of 0.3% PEI per well for at least 0.5 hour at room temperature. When the binding assays were completed, the reaction mixtures were filtered through GF/C plates using Perkin Elmer Filtermate Harvester, and each plate washed 4 times with cold wash buffer (25 mM HEPES, 5 mM MgCl2, 1 mM CaCl2, 100 mM NaCl, pH 7.4). The filter plates were dried for 1 hour at 50 degrees. After drying, the bottom of the filter plate wells was sealed, 50 μl of Perkin Elmer Microscint 20 cocktail was added, and the top of the filter plate was sealed. ^3H trapped on the filter was counted using Perkin Elmer MicroBeta2 Reader. The data were analyzed with GraphPad Prism 5 to obtain binding IC50 values for the reference compound. The “Inhibition [% Control]” was calculated using the equation: % Inh =(1−Background subtracted Assay value/Background subtracted HC value)*100, where HC is high control.

[3] = molecular target: T3, HEK-293 cells expressing human recombinant adenosine A2A receptor (Homo sapiens, UniProt P29274); test: cAMP assay (Assay 2), A2A receptor; type: cell-based; conditions: HEK-293 cells expressing human A2A receptor
T3 construct: expressed in transfected cells; host or cells: HEK-293
T3 sequence (P29274 whole entry): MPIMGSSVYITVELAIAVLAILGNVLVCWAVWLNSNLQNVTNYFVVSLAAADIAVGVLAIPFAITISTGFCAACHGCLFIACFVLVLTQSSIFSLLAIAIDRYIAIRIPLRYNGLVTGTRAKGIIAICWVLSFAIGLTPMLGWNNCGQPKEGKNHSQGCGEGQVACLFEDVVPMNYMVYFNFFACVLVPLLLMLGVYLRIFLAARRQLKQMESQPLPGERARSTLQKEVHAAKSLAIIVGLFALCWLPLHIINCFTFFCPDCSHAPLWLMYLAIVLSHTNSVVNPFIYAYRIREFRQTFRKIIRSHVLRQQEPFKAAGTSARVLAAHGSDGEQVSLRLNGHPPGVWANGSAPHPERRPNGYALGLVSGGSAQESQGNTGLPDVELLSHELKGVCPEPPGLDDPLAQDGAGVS
Method: (§1) The functional activity of compounds was tested using Assay 2 below, to detect the presence of cAMP. Assay 1 is an alternative assay for this purpose. Activation of G-protein coupled receptors (such as A2A) results in activation of adenylyl cyclase which converts ATP into cAMP which is used as a downstream signaling molecule. Molecules which act as GPCR (or specifically A2A receptor) antagonists cause a decrease in intracellular cAMP concentration.
(§2) Assay 2 (Table B2): This assay used HEK-293 cells expressing human recombinant adenosine A2A receptor (or, alternatively, A1 receptor) that were grown prior to the test in media without antibiotic. 100 nL of test articles at 100× of final concentration were transferred to assay plate by Echo. Cells were washed twice with 5 mL of PBS and 10 μL of cells were mixed with 5 mL PBS. After aspirating the PBS and adding 1.5 mL versine, cells were incubated at 37° C. for 2-5 min. After centrifugation, 4 mL of medium was added and adjusted cell density to 5,000 cells/well with Stimulation Buffer. 10 μL of cells were aliquoted to the assay plate, centrifuged at 1000 rpm for 1 minute, and incubated for 60 minutes at room temperature. 5 μL 4× Eu-cAMP tracer solution and 5 μL 4× Ulight™-anti-cAMP solution were added to assay plate, followed by centrifugation and 60-minute incubation at room temperature. Plates were read on EnVision.

[4] = molecular target: T4, HEK-293 cells expressing human recombinant A1 receptor (Homo sapiens, UniProt P30542); test: cAMP assay (Assay 2), A1 receptor; type: cell-based; conditions: HEK-293 cells expressing A1 receptor
T4 construct: expressed in transfected cells; host or cells: HEK-293
T4 sequence (P30542 1-326): T2 sequence (P30542 1-326)
Method: as §1, §2

T1 sequence (P29274 whole entry): as above

SMILES	IC50 [1] [nM]	inhibition at 0.2 µM [2] [%]	IC50 [3] [nM]	IC50 [4] [nM]
CC(C)(O)c1cccc(COc2nc(-c3ccc4ncccc4c3)c(-c3ccccc3)nc2N)n1 [compound 2, 2-(6-(((3-amino-5-phenyl-6-(quinolin-6-yl)pyrazin-2-yl)oxy)methyl)pyridin-2-yl)propan-2-ol]			15.1	32.3
CC(C)(O)c1cccc(Cn2cc(-c3nc(-c4ccc5ncccc5c4)c(-c4ccccc4)nc3N)nn2)n1 [compound 102, 2-(6-((4-(3-amino-5-phenyl-6-(quinolin-6-yl)pyrazin-2-yl)-1H-1,2,3-triazol-1-yl)methyl)pyridin-2-yl)propan-2-ol]		97	19.6	8.7
Cc1ccn(-c2nc(N)c(OCc3cccc(C(C)(C)O)n3)nc2-c2cc(Cl)c3ncccc3c2)n1 [compound 1, 2-(6-(((3-amino-6-(8-chloroquinolin-6-yl)-5-(3-methyl-1H-pyrazol-1-yl)pyrazin-2-yl)oxy)methyl)pyridin-2-yl)propan-2-ol]			164	
CC(C)(O)c1cccc(COc2nc(-c3cc(Cl)c4ncccc4c3)c(-c3ccc(F)cc3)nc2N)n1 [Compound No. 58, 2-(6-(((3-amino-6-(8-chloroquinolin-6-yl)-5-(4-fluorophenyl)pyrazin-2-yl)oxy)methyl)pyridin-2-yl)propan-2-ol]		85	18.4	92.7

Further lines, results first:

IC50 [1] [nM]	inhibition at 0.2 µM [2] [%]	IC50 [3] [nM]	IC50 [4] [nM]	SMILES
105	49			C[C@H](c1ccccn1)N(C)C(=O)c1nc(-c2ccc3ncccc3c2)c(-c2ccccc2)nc1N [compound 119, (R)-3-amino-N-methyl-5-phenyl-N-(1-(pyridin-2-yl)ethyl)-6-(quinolin-6-yl)pyrazine-2-carboxamide]
2.1	68			CC(NC(=O)c1nc(-c2ccc3ncccc3c2)c(-c2ccccc2)nc1N)c1ccccc1 (stereo not drawn) [compound 121, 3-amino-5-phenyl-N-(1-phenylethyl)-6-(quinolin-6-yl)pyrazine-2-carboxamide]
65	90			C[C@@H](c1ccccn1)N(C)C(=O)c1nc(-c2ccc3ncccc3c2)c(-c2ccccc2)nc1N [compound 120, (S)-3-amino-N-methyl-5-phenyl-N-(1-(pyridin-2-yl)ethyl)-6-(quinolin-6-yl)pyrazine-2-carboxamide]
